Experimental data from patent US20050158709A1, “Methods for determinging the influence of protein binding on antiretroviral activity” (priority 2002, published 2005).
Where two headings read alike, the source gives them in different places.

Key:
HIV [1] = conditions: in vitro; increasing AAG; cited from earlier work
R13028 = assay: EC50 against viral strain R13028; format: cell-based, HIV; conditions: Human immunodeficiency virus 1
Experimental: (§1) As an example, protease inhibitors have clinically relevant concentrations in a range of around 500 nM and more, sub-therapeutic concentrations in the range of around 50 nM to around 500 nM, and in vitro testing concentrations in the range of less than around or 50 nM.

R13025 = assay: EC50 against viral strain R13025; format: cell-based, HIV; conditions: Human immunodeficiency virus 1
Experimental: as §1

wild type HIV-1 (LAI) = assay: Cell-based antiviral assay (MT4 cells, MTT method) in the presence of human plasma or serum proteins, wild type HIV-1; conditions: for ratio between EC50 in presence of indicated protein and EC50 in presence of 10% FCS: HS 50% / ratio between EC50 in presence of indicated protein and EC50 in presence of 10% FCS: AAG 1 mg/mL / ratio between EC50 in presence of indicated protein and EC50 in presence of 10% FCS: FCS (10%) / ratio between EC50 in presence of indicated protein and EC50 in presence of 10% FCS: HSA 45 mg/mL: wild type HIV-1 (LAI), median of at least two determinations; for ratio between EC50 in presence of indicated protein and EC50 in presence of 10% FCS: HS 50%: 50% human serum; for ratio between EC50 in presence of indicated protein and EC50 in presence of 10% FCS: AAG 1 mg/mL: AAG 1 mg/mL and 10% FCS; for ratio between EC50 in presence of indicated protein and EC50 in presence of 10% FCS: FCS (10%): FCS 10% (reference); for ratio between EC50 in presence of indicated protein and EC50 in presence of 10% FCS: HSA 45 mg/mL: HSA 45 mg/mL and 10% FCS
Experimental: (§2) The influence of AAG, Human Serum Albumin (HSA) or Human Serum (HS) on the activity of antiretrovirals was measured in a cell-based antiviral assay. A phenotypic assay was performed to measure the ability of resistant virus strains to grow in the presence of each drug of interest, and in the presence of various combinations of plasma or serum proteins at different concentrations: • 50% heat-inactivated human serum (HS) with or without 10% fetal calf serum (FCS) • 1 mg/mL AAG and 10% FCS • 45 mg/mL human serum albumin (HSA) and 10% FCS
(§3) Anti-HIV activity was determined in HIV-or mock-infected MT4 cells by the MTT method as described by Pauwels et al (1988), J.Virol.Meth.20:[…], and Hertogs et al (1998), Antimicrob.Ag.Chemother.42:269-27. Briefly, recombinant or non-recombinant virus, with a specific resistance profile, were grown in cell culture to obtain viral stocks of known concentration. Susceptibility testing of the viral stocks in the presence of various antiviral agents and in the presence of plasma or serum proteins, and a detection system based on MTT determined to which extent agents inhibited replication of the virus strains.
(§4) Virus strains used for these studies had different origins: • HIV strains obtained by in vitro selection in the presence of various antivirals • Recombinant clinical isolates constructed according to the Antivirogram™ method as described by Hertogs et al (1998).

LAI = assay: EC50 against viral strain LAI; format: cell-based, HIV; conditions: Human immunodeficiency virus 1
Experimental: as §1

[2] = system: various HIV-1 strains (resistant strains); format: cell-based; conditions: for EC50 ratio (human plasma or serum protein vs 10% FCS), concentration range 50 nM-5 nM: EC50 50 nM-5 nM (in vitro testing concentrations, wild type HIV); for EC50 ratio (human plasma or serum protein vs 10% FCS), concentration range 500 nM-50 nM: strains with EC50 500 nM-50 nM (sub-therapeutic concentrations)
Experimental: as §2, §3, §4
Virus strains with various levels of resistance against each of the PIs were used in similar experiments with AAG.

R13485 = assay: EC50 against viral strain R13485; format: cell-based, HIV; conditions: Human immunodeficiency virus 1
Experimental: as §1

R13273 = assay: EC50 against viral strain R13273; format: cell-based, HIV; conditions: Human immunodeficiency virus 1
Experimental: as §1

R13036 = assay: EC50 against viral strain R13036; format: cell-based, HIV; conditions: Human immunodeficiency virus 1
Experimental: as §1

R13127 = assay: EC50 against viral strain R13127; format: cell-based, HIV; conditions: Human immunodeficiency virus 1
Experimental: as §1

R13031 = assay: EC50 against viral strain R13031; format: cell-based, HIV; conditions: Human immunodeficiency virus 1
Experimental: as §1

HIV [3] = conditions: extensive protein binding prevented intracellular diffusion; cited from earlier work
HIV [4] = conditions: cited from earlier work
T13025 = assay: EC50 against viral strain T13025; format: cell-based, HIV; conditions: Human immunodeficiency virus 1
Experimental: as §1

T13127 = assay: EC50 against viral strain T13127; format: cell-based, HIV; conditions: Human immunodeficiency virus 1
Experimental: as §1

R13020 = assay: EC50 against viral strain R13020; format: cell-based, HIV; conditions: Human immunodeficiency virus 1
Experimental: as §1

[5] = protein not given, AAG, median of at least two determinations
[6] = strains with EC50 5 μM-500 nM (clinically relevant concentrations), protein not given, AAG, median of at least two determinations

In the case of CC(C)[C@H](NC(=O)N(C)Cc1ccccn1)C(=O)N[C@@H](Cc1ccccc1)[C@H](O)[C@H](O)[C@H](Cc1ccccc1)NC(=O)[C@@H](NC(=O)N(C)Cc1ccccn1)C(C)C [A77003], the “antiviral efficacy as the concentration of α1-acid glycoprotein (AAG) was increased” value (HIV [1]) is given as “decreased”.

In the case of CC(C)(C)NC(=O)[C@@H]1CN(Cc2cccnc2)CCN1C[C@@H](O)C[C@@H](Cc1ccccc1)C(=O)N[C@H]1c2ccccc2C[C@H]1O [Indinavir, indinavir], the EC50 (R13028) is reported as roughly 261 nM, the EC50 (R13025) is reported as roughly 2000 nM and the “effect of AAG and HS on potency against wild-type HIV-1” value (wild type HIV-1 (LAI); wild-type HIV-1, presence of AAG and HS) is reported as “unaffected”. It also gave an EC50 (LAI) of roughly 36 nM.

For Cc1cccc(C)c1OCC(=O)N[C@@H](Cc1ccccc1)[C@@H](O)C[C@H](Cc1ccccc1)NC(=O)[C@H](C(C)C)N1CCCNC1=O [Lopinavir, lopinavir], the “EC50 ratio (human plasma or serum protein vs 10% FCS), concentration range 5 μM-500 nM” value [2] was 4, the “EC50 ratio (human plasma or serum protein vs 10% FCS), concentration range 50 nM-5 nM” value [2, 5] was 64 and the “EC50 ratio (human plasma or serum protein vs 10% FCS), concentration range 500 nM-50 nM” value [2, 5] was 20. The EC50 (R13485) was roughly 367 nM, the EC50 (R13273) was roughly 2000 nM and the “ratio between EC50 in presence of indicated protein and EC50 in presence of 10% FCS: HS 50%” value (“ratio between EC50 in presence … HS 50%” for short) (wild type HIV-1 (LAI)) was 5. The “ratio between EC50 in presence of indicated protein and EC50 in presence of 10% FCS: AAG 1 mg/mL” value (shortened to “ratio between EC50 … of 10% FCS: AAG 1 mg/mL”) (wild type HIV-1 (LAI)) was 26, the “ratio between EC50 in presence of indicated protein and EC50 in presence of 10% FCS: FCS (10%)” value (“ratio between EC50 in presence … (10%)” for short) (wild type HIV-1 (LAI)) was 1 and the “ratio between EC50 in presence of indicated protein and EC50 in presence of 10% FCS: HSA 45 mg/mL” value (from here on “ratio between EC50 … of 10% FCS: HSA 45 mg/mL”) (wild type HIV-1 (LAI)) was 5. It also gave an EC50 (LAI) of roughly 9 nM.

For Cc1c(O)cccc1C(=O)N[C@@H](CSc1ccccc1)[C@H](O)CN1C[C@H]2CCCC[C@H]2C[C@H]1C(=O)NC(C)(C)C [Nelfinavir, nelfinavir], the EC50 (R13028) was roughly 254 nM, the “EC50 ratio (human plasma or serum protein vs 10% FCS), concentration range 50 nM-5 nM” value [2, 5] was 11 and the “EC50 ratio (human plasma or serum protein vs 10% FCS), concentration range 500 nM-50 nM” value [2, 5] was 9. The “EC50 ratio (human plasma or serum protein vs 10% FCS), concentration range 5 μM-500 nM” value [2, 6] was 5, the EC50 (R13036) was roughly 1000 nM and the “ratio between EC50 in presence … HS 50%” value (wild type HIV-1 (LAI)) was 25. For the same compound, the “ratio between EC50 … of 10% FCS: AAG 1 mg/mL” value (wild type HIV-1 (LAI)) was 31, the “ratio between EC50 in presence … (10%)” value (wild type HIV-1 (LAI)) was 1 and the “ratio between EC50 … of 10% FCS: HSA 45 mg/mL” value (wild type HIV-1 (LAI)) was 7. The EC50 (R13127) was roughly 8000 nM and the EC50 (LAI) was roughly 32 nM.

For CC(C)c1nc(CN(C)C(=O)N[C@H](C(=O)N[C@@H](Cc2ccccc2)C[C@H](O)[C@H](Cc2ccccc2)NC(=O)OCc2cncs2)C(C)C)cs1 [Ritonavir, ritonavir], the EC50 (R13031) was roughly 407 nM, the EC50 (R13025) was roughly 2000 nM and the EC50 (LAI) was roughly 36 nM.

In the case of CC(C)CN(C[C@@H](O)[C@H](Cc1ccccc1)NC(=O)[C@H](CC(N)=O)NC(=O)c1ccc2ccccc2n1)C(=O)NC(C)(C)C [SC-52151, telinavir], the “activity in vivo (clinical efficacy)” value (HIV [3]) is given as “insufficient” and the “antiretroviral activity in vitro” value (HIV [4]) is given as “potent”.

In the case of CC(C)(C)NC(=O)[C@@H]1C[C@@H]2CCCC[C@@H]2CN1C[C@@H](O)[C@H](Cc1ccccc1)NC(=O)[C@H](CC(N)=O)NC(=O)c1ccc2ccccc2n1 [Saquinavir, saquinavir], the EC50 (T13025) is reported as roughly 166 nM, the “EC50 ratio (human plasma or serum protein vs 10% FCS), concentration range 5 μM-500 nM” value [2] is reported as 3 and the “EC50 ratio (human plasma or serum protein vs 10% FCS), concentration range <5 nM” value [2] is reported as 19. For the same compound, the “EC50 ratio (human plasma or serum protein vs 10% FCS), concentration range >5 μM” value [2] was 2, the “EC50 ratio (human plasma or serum protein vs 10% FCS), concentration range 50 nM-5 nM” value [2, 5] was 5 and the “influence of AAG on the anti-HIV activity” value ([2]; different HIV-1 strains, AAG 1 mg/mL vs 10% FCS, FIG. 1) was “decreases with increasing inhibitor concentrations”. The “EC50 ratio (human plasma or serum protein vs 10% FCS), concentration range 500 nM-50 nM” value [2, 5] was 4, the EC50 (T13127) was roughly 710 nM and the EC50 (R13020) was roughly 7000 nM. The “ratio between EC50 in presence … HS 50%” value (wild type HIV-1 (LAI)) was 5, the “ratio between EC50 … of 10% FCS: AAG 1 mg/mL” value (wild type HIV-1 (LAI)) was 5 and the “ratio between EC50 in presence … (10%)” value (wild type HIV-1 (LAI)) was 1. The “ratio between EC50 … of 10% FCS: HSA 45 mg/mL” value (wild type HIV-1 (LAI)) was 3.

With CC(C)CN(C[C@@H](O)[C@H](Cc1ccccc1)NC(=O)O[C@H]1CCOC1)S(=O)(=O)c1ccc(N)cc1 [amprenavir] the “EC50 ratio (human plasma or serum protein vs 10% FCS), concentration range 50 nM-5 nM” value [2, 5] was 38, the “EC50 ratio (human plasma or serum protein vs 10% FCS), concentration range 500 nM-50 nM” value [2, 5] was 14 and the “EC50 ratio (human plasma or serum protein vs 10% FCS), concentration range 5 μM-500 nM” value [2, 6] was 5. For the same compound, the EC50 (R13025) was roughly 412 nM, the “ratio between EC50 in presence … HS 50%” value (wild type HIV-1 (LAI)) was 12 and the “ratio between EC50 … of 10% FCS: AAG 1 mg/mL” value (wild type HIV-1 (LAI)) was 25. For the same compound, the “ratio between EC50 in presence … (10%)” value (wild type HIV-1 (LAI)) was 1, the “ratio between EC50 … of 10% FCS: HSA 45 mg/mL” value (wild type HIV-1 (LAI)) was 2 and the EC50 (R13127) was roughly 2000 nM. It also gave an EC50 (LAI) of roughly 42 nM.

For CC(C)CN(C[C@@H](O)[C@H](Cc1ccccc1)NC(=O)OC1CO[C@H]2OCC[C@@H]12)S(=O)(=O)c1ccc(N)cc1 (some centres unmarked) [compound 1], the “EC50 ratio (human plasma or serum protein vs 10% FCS), concentration range 5 μM-500 nM” value [2] was 7, the “EC50 ratio (human plasma or serum protein vs 10% FCS), concentration range <5 nM” value [2] was 85 and the “EC50 ratio (human plasma or serum protein vs 10% FCS), concentration range >5 μM” value [2] was 4. For the same compound, the “EC50 ratio (human plasma or serum protein vs 10% FCS), concentration range 50 nM-5 nM” value [2, 5] was 24 and the “EC50 ratio (human plasma or serum protein vs 10% FCS), concentration range 500 nM-50 nM” value [2, 5] was 12.
